# Experimental data from ChEMBL document CHEMBL4251700, “Novel Staphyloxanthin Inhibitors with Improved Potency against Multidrug Resistant Staphylococcus aureus” (ACS Med Chem Lett, 2018).
# Positions count from the first letter of the chain named. Activity calls are given as the source filed them. No cut-off for these calls is given here.
# Experiments:
# Staphylococcus aureus [1] = experiment: Antibacterial activity against vancomycin-intermediate Staphylococcus aureus Mu50 infected in BALB/c mouse assessed as reduction of bacterial burden in heart at 0.1 mg, ip bid for 3.5 days administered 6 hrs post bacterial infection measured 84 hrs post infection relative to control; type: functional
# Staphylococcus aureus [2] = experiment: Antibacterial activity against vancomycin-intermediate Staphylococcus aureus Mu50 infected in BALB/c mouse assessed as reduction of bacterial burden in heart at 0.4 mg, ip bid for 3.5 days administered 6 hrs post bacterial infection measured 84 hrs post infection relative to control; type: functional
# Staphylococcus aureus [3] = experiment: Antibacterial activity against vancomycin-intermediate Staphylococcus aureus Mu50 infected in BALB/c mouse assessed as reduction of bacterial burden in liver at 0.1 mg, ip bid for 3.5 days administered 6 hrs post bacterial infection measured 84 hrs post infection; type: functional, organism-based
# Staphylococcus aureus [4] = experiment: Antibacterial activity against vancomycin-intermediate Staphylococcus aureus Mu50 infected in BALB/c mouse assessed as reduction of bacterial burden in liver at 0.4 mg, ip bid for 3.5 days administered 6 hrs post bacterial infection measured 84 hrs post infection; type: functional, organism-based
# Staphylococcus aureus [5] = experiment: Antibacterial activity against vancomycin-intermediate Staphylococcus aureus Mu50 infected in BALB/c mouse assessed as reduction of bacterial burden in liver at 0.1 mg, ip bid administered at 12 hrs prior to bacterial infection dosed at 12 intervals for 4.5 days; type: functional, organism-based
# Staphylococcus aureus [6] = experiment: Antibacterial activity against vancomycin-intermediate Staphylococcus aureus Mu50 infected in BALB/c mouse assessed as reduction of bacterial burden in liver at 0.4 mg, ip bid administered at 12 hrs prior to bacterial infection dosed at 12 intervals for 4.5 days; type: functional, organism-based
# [7] = molecular target: T1, 4,4'-diapophytoene desaturase (4,4'-diaponeurosporene-forming) (Staphylococcus aureus (strain Newman), UniProt O07855); experiment: Inhibition of CrtN in Staphylococcus aureus Newman assessed as reduction in staphyloxanthin levels after 48 hrs by spectrophotometric method-based pigment inhibition assay; design: species or system Staphylococcus aureus subsp. aureus str. Newman
# T1 sequence (O07855 whole entry): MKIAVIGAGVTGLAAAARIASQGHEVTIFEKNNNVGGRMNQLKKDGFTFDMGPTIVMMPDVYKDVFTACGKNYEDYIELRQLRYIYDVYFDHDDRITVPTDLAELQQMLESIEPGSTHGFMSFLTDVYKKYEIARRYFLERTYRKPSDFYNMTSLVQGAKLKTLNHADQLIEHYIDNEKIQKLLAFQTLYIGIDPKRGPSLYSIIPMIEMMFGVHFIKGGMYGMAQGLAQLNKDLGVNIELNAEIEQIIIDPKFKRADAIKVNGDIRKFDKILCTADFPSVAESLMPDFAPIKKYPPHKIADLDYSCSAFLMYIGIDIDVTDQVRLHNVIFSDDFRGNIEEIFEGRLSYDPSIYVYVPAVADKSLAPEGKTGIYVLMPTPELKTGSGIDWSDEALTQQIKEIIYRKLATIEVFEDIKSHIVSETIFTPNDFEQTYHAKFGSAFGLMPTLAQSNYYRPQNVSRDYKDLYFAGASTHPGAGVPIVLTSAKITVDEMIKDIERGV
# [8] = molecular target: T1, 4,4'-diapophytoene desaturase (4,4'-diaponeurosporene-forming); experiment: Inhibition of Staphylococcus aureus Newman […]-tagged CrtN expressed in Escherichia coli BL21(DE3))/pET28a::CrtN assessed as reduction in staphyloxanthin levels using diapophytoene as substrate after overnight incubation; design: species or system Staphylococcus aureus subsp. aureus str. Newman
# [9] = molecular target: T2, 4,4'-diapophytoene desaturase (4,4'-diaponeurosporene-forming) (Staphylococcus aureus (strain Mu50 / ATCC 700699), UniProt Q99R76); experiment: Inhibition of CrtN in vancomycin-intermediate Staphylococcus aureus Mu50 assessed as reduction in staphyloxanthin levels after 48 hrs by spectrophotometric method-based pigment inhibition assay; design: species or system Staphylococcus aureus subsp. aureus Mu50
# T2 sequence (Q99R76 whole entry): T1 sequence (O07855 whole entry)
# [10] = molecular target: T1, 4,4'-diapophytoene desaturase (4,4'-diaponeurosporene-forming); experiment: Inhibition of CrtN in linezolid-resistant Staphylococcus aureus NRS271 assessed as reduction in staphyloxanthin levels after 48 hrs by spectrophotometric method-based pigment inhibition assay
# [11] = molecular target: T3, 4,4'-diapophytoene desaturase (4,4'-diaponeurosporene-forming) (Staphylococcus aureus (strain MW2), UniProt Q8NUQ6); experiment: Inhibition of CrtN in methicillin-resistant Staphylococcus aureus USA400 MW2 assessed as reduction in staphyloxanthin levels after 48 hrs by spectrophotometric method-based pigment inhibition assay; design: species or system Staphylococcus aureus subsp. aureus MW2
# T3 sequence (Q8NUQ6 whole entry): T1 sequence (O07855 whole entry) with R500Q
# [12] = molecular target: T3, 4,4'-diapophytoene desaturase (4,4'-diaponeurosporene-forming); experiment: Inhibition of CrtN in methicillin-resistant Staphylococcus aureus LAC USA300 assessed as reduction in staphyloxanthin levels after 48 hrs by spectrophotometric method-based pigment inhibition assay; design: species or system Staphylococcus aureus subsp. aureus USA300
# [13] = Solubility of the compound in water at 10 mg measured after 24 hrs by HPLC method; type: physicochemical
# [14] = Half life in human liver microsomes at 2 uM by LC-MS/MS analysis; type: ADME, microsome
# [15] = Cytotoxicity against HEK293T cells after 72 hrs by CCK8 assay; type: cell-based, HEK-293T; conditions: human
# [16] = Cytotoxicity against human HepG2 cells after 72 hrs by CCK8 assay; type: cell-based
# [17] = molecular target: Voltage-gated inwardly rectifying potassium channel KCNH2 (Homo sapiens, UniProt Q12809); experiment: Inhibition of recombinant human ERG expressed in CHO cells at -80 mV holding potential measured after 3 minutes by automated whole cell patch clamp Qpatch method; type: cell-based
# Chain of Voltage-gated inwardly rectifying potassium channel KCNH2 (Q12809 whole entry): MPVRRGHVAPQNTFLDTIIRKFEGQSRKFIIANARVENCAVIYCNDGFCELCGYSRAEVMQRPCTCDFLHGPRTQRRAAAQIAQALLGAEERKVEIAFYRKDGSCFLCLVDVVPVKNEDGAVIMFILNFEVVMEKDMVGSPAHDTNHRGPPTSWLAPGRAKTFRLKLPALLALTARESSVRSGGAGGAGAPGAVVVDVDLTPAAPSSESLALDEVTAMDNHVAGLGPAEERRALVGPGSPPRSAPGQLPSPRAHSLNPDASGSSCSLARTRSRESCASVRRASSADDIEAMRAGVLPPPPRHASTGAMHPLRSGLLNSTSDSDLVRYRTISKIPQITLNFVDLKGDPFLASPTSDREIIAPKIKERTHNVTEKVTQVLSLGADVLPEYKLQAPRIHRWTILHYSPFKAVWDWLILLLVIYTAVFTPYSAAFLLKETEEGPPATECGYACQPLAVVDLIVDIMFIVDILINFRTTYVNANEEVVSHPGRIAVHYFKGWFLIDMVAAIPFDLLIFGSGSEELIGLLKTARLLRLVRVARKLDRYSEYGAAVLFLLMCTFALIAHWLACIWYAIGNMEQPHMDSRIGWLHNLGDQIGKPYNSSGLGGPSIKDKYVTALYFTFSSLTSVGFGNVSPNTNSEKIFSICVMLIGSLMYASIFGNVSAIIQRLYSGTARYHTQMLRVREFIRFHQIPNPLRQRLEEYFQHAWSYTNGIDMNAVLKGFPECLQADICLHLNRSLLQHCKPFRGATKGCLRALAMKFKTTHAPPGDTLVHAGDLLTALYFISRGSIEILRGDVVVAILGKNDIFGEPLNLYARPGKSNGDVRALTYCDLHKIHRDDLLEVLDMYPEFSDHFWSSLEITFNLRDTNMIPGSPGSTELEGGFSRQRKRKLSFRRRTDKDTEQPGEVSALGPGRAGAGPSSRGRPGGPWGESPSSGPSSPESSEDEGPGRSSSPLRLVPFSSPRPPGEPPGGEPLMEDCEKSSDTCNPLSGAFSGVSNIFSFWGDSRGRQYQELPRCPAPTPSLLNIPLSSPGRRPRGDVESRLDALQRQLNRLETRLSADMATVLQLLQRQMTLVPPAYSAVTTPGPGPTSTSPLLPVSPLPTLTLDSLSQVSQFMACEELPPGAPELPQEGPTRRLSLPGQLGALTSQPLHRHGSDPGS
# Staphylococcus aureus [18] = experiment: Antibacterial activity against linezolid-resistant Staphylococcus aureus NRS271 infected in BALB/c mouse assessed as reduction of bacterial burden in liver at 0.1 mg, ip bid administered at 12 hrs prior to bacterial infection dosed at 12 intervals for 4.5 days; type: functional, organism-based
# Staphylococcus aureus [19] = experiment: Antibacterial activity against linezolid-resistant Staphylococcus aureus NRS271 infected in BALB/c mouse assessed as reduction of bacterial burden in liver at 0.4 mg, ip bid administered at 12 hrs prior to bacterial infection dosed at 12 intervals for 4.5 days; type: functional, organism-based
# Staphylococcus aureus [20] = experiment: Antibacterial activity against linezolid-resistant Staphylococcus aureus NRS271 infected in BALB/c mouse assessed as reduction of bacterial burden in heart at 0.1 mg, ip bid administered at 24 hrs prior to bacterial infection dosed at 12 intervals for 4.5 days
# Staphylococcus aureus [21] = experiment: Antibacterial activity against linezolid-resistant Staphylococcus aureus NRS271 infected in BALB/c mouse assessed as reduction of bacterial burden in heart at 0.4 mg, ip bid administered at 24 hrs prior to bacterial infection dosed at 12 intervals for 4.5 days
compound,measurement,setting,value
CN[C@H](CC(C)C)C(=O)N[C@H]1C(=O)N[C@@H](CC(N)=O)C(=O)N[C@H]2C(=O)N[C@H]3C(=O)N[C@H](C(=O)N[C@H](C(=O)O)c4cc(O)cc(O)c4-c4cc3ccc4O)[C@H](O)c3ccc(c(Cl)c3)Oc3cc2cc(c3O[C@@H]2O[C@H](CO)[C@@H](O)[C@H](O)[C@H]2O[C@H]2C[C@](C)(N)[C@H](O)[C@H](C)O2)Oc2ccc(cc2Cl)[C@H]1O,Activity,Staphylococcus aureus [1],Active
same,Activity,Staphylococcus aureus [2],Active
same,Activity,Staphylococcus aureus [3],Active
same,Activity,Staphylococcus aureus [4],Active
same,Activity,Staphylococcus aureus [5],Active
same,Activity,Staphylococcus aureus [6],Active
CN(C/C=C/c1ccc(Br)cc1)Cc1ccc2c(c1)OCCO2,IC50,[7],8.2 nM
COc1ccc(/C=C/CN(C)Cc2ccc3c(c2)OCCO3)c(F)c1,IC50,[7],43.5 nM
C/C=C/CN(C)Cc1ccc2c(c1)OCCO2,IC50,[7],> 1000 nM
COc1ccc(/C=C/CN(C)Cc2ccc3c(c2)OCCO3)cc1,IC50,[7],48.6 nM
CN(C/C=C/c1ccc(C(F)(F)F)cc1)Cc1ccc2c(c1)OCCO2.Cl,IC50,[7],2.9 nM
same,IC50,[8],341 nM
same,IC50,[9],1.2 nM
same,IC50,[10],1.1 nM
same,IC50,[11],6.5 nM
same,IC50,[12],5.9 nM
same,solubility at 24 h,[13],13500 µg/mL
CN(C/C=C/c1ccccc1C(F)(F)F)Cc1ccc2c(c1)OCCO2,IC50,[7],> 1000 nM
Cc1ncc2n1-c1ccc(Cl)cc1C(c1ccccc1F)=NC2 [MIDAZOLAM],half-life at 2 µM,[14],4.2 min
C[C@@H]1[C@H](O)[C@@H](C)/C=C/C=C/C=C/C=C/C=C/C=C/C=C/[C@H](O[C@@H]2O[C@H](C)[C@@H](O)[C@H](N)[C@@H]2O)C[C@@H]2O[C@](O)(C[C@@H](O)C[C@@H](O)[C@H](O)CC[C@@H](O)C[C@@H](O)CC(=O)O[C@H]1C)C[C@H](O)[C@H]2C(=O)O [AMPHOTERICIN B],CC50 at 72 h,[15],27500 nM
same,CC50 at 72 h,[16],37800 nM
CN(C/C=C/c1ccc(F)cc1)Cc1ccc2c(c1)OCCO2,IC50,[7],20.1 nM
CN(C/C=C/c1ccc(C(F)(F)F)cc1)Cc1ccc2c(c1)CCCC2.Cl,solubility at 24 h,[13],690 µg/mL
CN(C/C=C/c1cccc2ccccc12)Cc1ccc2c(c1)OCCO2,IC50,[7],> 1000 nM
CN(C/C=C/C=C/C=C/c1ccc(C(F)(F)F)cc1)Cc1ccc2c(c1)OCCO2.Cl,IC50,[7],1.6 nM
same,IC50,[8],258 nM
same,IC50,[9],1.2 nM
same,IC50,[10],0.4 nM
same,IC50,[11],5.3 nM
same,IC50,[12],3.7 nM
same,IC50,[17],8700 nM
same,solubility at 24 h,[13],3300 µg/mL
CC(=O)NC[C@H]1CN(c2ccc(N3CCOCC3)c(F)c2)C(=O)O1,Activity,Staphylococcus aureus [1],Active
same,Activity,Staphylococcus aureus [2],Active
same,Activity,Staphylococcus aureus [3],Active
same,Activity,Staphylococcus aureus [4],Active
same,Activity,Staphylococcus aureus [5],Active
same,Activity,Staphylococcus aureus [6],Active
same,Activity,Staphylococcus aureus [18],Active
same,Activity,Staphylococcus aureus [19],Active
same,Activity,Staphylococcus aureus [20],Active
same,Activity,Staphylococcus aureus [21],Active
CN(C/C=C/c1ccccc1Cl)Cc1ccc2c(c1)OCCO2,IC50,[7],90.3 nM
CN(C/C=C/c1cccc(C(F)(F)F)c1)Cc1ccc2c(c1)OCCO2,IC50,[7],> 1000 nM
COc1cccc(/C=C/CN(C)Cc2ccc3c(c2)OCCO3)c1,IC50,[7],> 1000 nM
CN(C/C=C/c1ccc(C(F)(F)F)c(F)c1)Cc1ccc2c(c1)OCCO2,IC50,[7],13.7 nM
COc1ccc(/C=C/CN(C)Cc2ccc3c(c2)OCCO3)cc1F,IC50,[7],57.9 nM
CN(C/C=C/c1ccccc1)Cc1ccc2c(c1)OCCO2,IC50,[7],371 nM
CN(C/C=C/c1ccc(Cl)cc1Cl)Cc1ccc2c(c1)OCCO2,IC50,[7],15 nM
Cc1ccccc1/C=C/CN(C)Cc1ccc2c(c1)OCCO2,IC50,[7],> 1000 nM
COc1ccc(/C=C/CN(C)Cc2ccc3c(c2)CCCCC3)cc1.Cl,IC50,[11],7.1 nM
same,IC50,[12],7.7 nM
same,solubility at 24 h,[13],4200 µg/mL
CN(C/C=C/c1ccc(C(F)(F)F)cc1F)Cc1ccc2c(c1)OCCO2,IC50,[7],8.8 nM
CN(C/C=C/c1cccc([N+](=O)[O-])c1)Cc1ccc2c(c1)OCCO2,IC50,[7],> 1000 nM
COc1ccccc1/C=C/CN(C)Cc1ccc2c(c1)OCCO2,IC50,[7],> 1000 nM
Cc1cccc(/C=C/CN(C)Cc2ccc3c(c2)OCCO3)c1,IC50,[7],43.4 nM
CN(C/C=C/c1ccc(C(C)(C)C)cc1)Cc1ccc2c(c1)OCCO2,IC50,[7],156 nM
CN(C/C=C/c1ccco1)Cc1ccc2c(c1)OCCO2,IC50,[7],228 nM
CN(C/C=C/c1ccccc1F)Cc1ccc2c(c1)OCCO2,IC50,[7],> 1000 nM
CN(C/C=C/c1ccc(-c2ccccc2)cc1)Cc1ccc2c(c1)OCCO2,IC50,[7],4.1 nM
CN(C/C=C/c1cccc(F)c1)Cc1ccc2c(c1)OCCO2,IC50,[7],> 1000 nM
CCOc1ccc(/C=C/CN(C)Cc2ccc3c(c2)OCCO3)cc1,IC50,[7],8.2 nM
CN(C/C=C/c1ccc(C#N)cc1)Cc1ccc2c(c1)OCCO2,IC50,[7],19.2 nM
Cc1ccc(/C=C/CN(C)Cc2ccc3c(c2)OCCO3)cc1.Cl,IC50,[7],3.2 nM
same,IC50,[17],4600 nM
same,solubility at 24 h,[13],6500 µg/mL
CN(C/C=C/C1CCCCC1)Cc1ccc2c(c1)OCCO2,IC50,[7],> 1000 nM
CN(C/C=C/c1cccs1)Cc1ccc2c(c1)OCCO2,IC50,[7],221 nM
CN(C/C=C/c1ccc(Cl)cc1)Cc1ccc2c(c1)OCCO2,IC50,[7],6.7 nM
CN(C/C=C/c1ccccc1[N+](=O)[O-])Cc1ccc2c(c1)OCCO2,IC50,[7],> 1000 nM
CN(C/C=C/c1cccc(Cl)c1)Cc1ccc2c(c1)OCCO2,IC50,[7],112 nM
CN(C/C=C/C1CCCC1)Cc1ccc2c(c1)OCCO2,IC50,[7],321 nM
CN(C/C=C/c1ccc([N+](=O)[O-])cc1)Cc1ccc2c(c1)OCCO2,IC50,[7],18.9 nM
